Assay results as given in ChEMBL document CHEMBL4028801, “A multifactorial approach to hepatobiliary transporter assessment enables improved therapeutic compound development” (Toxicol Sci, 2013).
Structures can show the parent of a compound that is named as a salt.

Tests used:
Bile salt export pump = Bile salt export pump (Homo sapiens, UniProt O95342); assay: Inhibition of human BSEP overexpressed in Sf9 cell membrane vesicles assessed as uptake of [3H]-taurocholate in presence of ATP measured after 15 to 20 mins by membrane vesicle transport assay; type: ADME, cell-based
Bile salt export pump, sequence (O95342 whole entry): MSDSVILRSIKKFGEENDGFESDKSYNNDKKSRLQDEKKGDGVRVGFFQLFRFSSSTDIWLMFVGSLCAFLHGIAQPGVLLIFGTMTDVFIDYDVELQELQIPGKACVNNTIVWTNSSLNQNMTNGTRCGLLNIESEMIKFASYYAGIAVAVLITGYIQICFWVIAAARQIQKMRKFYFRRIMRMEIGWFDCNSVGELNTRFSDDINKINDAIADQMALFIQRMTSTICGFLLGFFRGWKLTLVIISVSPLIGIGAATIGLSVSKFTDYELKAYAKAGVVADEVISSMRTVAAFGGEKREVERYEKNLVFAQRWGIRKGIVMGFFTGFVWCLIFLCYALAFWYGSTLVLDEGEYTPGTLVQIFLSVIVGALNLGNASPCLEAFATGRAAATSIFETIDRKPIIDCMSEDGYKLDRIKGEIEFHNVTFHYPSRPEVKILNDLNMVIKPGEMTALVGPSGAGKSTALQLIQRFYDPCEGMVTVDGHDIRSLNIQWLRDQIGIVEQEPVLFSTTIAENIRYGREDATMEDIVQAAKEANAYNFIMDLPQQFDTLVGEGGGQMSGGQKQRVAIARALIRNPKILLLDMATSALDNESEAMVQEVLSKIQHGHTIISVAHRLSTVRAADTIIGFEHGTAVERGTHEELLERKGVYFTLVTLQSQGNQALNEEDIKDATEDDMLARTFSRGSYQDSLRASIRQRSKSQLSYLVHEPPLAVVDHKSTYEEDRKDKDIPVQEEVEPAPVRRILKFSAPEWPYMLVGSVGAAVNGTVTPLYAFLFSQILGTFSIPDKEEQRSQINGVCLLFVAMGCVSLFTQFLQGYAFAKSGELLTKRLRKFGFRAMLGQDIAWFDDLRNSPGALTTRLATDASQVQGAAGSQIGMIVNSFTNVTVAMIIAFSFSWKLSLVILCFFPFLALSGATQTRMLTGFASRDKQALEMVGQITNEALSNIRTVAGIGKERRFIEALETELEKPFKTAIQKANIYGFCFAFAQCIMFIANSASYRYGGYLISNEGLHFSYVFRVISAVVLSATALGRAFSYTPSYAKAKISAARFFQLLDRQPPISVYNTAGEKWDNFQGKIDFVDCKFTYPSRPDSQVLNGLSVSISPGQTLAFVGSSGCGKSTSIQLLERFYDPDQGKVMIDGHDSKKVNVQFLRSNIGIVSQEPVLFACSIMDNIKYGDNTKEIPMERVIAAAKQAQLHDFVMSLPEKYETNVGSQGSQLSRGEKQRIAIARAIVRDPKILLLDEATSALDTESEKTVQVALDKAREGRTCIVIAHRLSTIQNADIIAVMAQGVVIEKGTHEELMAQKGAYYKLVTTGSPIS

[1] = biological target: ATP-binding cassette sub-family C member 2 (Homo sapiens, UniProt Q92887); assay: Inhibition of human MRP2 overexpressed in Sf9 cell membrane vesicles assessed as uptake of [3H]-estradiol-17beta-D-glucuronide in presence of ATP and GSH measured after 20 mins by membrane vesicle transport assay
ATP-binding cassette sub-family C member 2, sequence (Q92887 whole entry): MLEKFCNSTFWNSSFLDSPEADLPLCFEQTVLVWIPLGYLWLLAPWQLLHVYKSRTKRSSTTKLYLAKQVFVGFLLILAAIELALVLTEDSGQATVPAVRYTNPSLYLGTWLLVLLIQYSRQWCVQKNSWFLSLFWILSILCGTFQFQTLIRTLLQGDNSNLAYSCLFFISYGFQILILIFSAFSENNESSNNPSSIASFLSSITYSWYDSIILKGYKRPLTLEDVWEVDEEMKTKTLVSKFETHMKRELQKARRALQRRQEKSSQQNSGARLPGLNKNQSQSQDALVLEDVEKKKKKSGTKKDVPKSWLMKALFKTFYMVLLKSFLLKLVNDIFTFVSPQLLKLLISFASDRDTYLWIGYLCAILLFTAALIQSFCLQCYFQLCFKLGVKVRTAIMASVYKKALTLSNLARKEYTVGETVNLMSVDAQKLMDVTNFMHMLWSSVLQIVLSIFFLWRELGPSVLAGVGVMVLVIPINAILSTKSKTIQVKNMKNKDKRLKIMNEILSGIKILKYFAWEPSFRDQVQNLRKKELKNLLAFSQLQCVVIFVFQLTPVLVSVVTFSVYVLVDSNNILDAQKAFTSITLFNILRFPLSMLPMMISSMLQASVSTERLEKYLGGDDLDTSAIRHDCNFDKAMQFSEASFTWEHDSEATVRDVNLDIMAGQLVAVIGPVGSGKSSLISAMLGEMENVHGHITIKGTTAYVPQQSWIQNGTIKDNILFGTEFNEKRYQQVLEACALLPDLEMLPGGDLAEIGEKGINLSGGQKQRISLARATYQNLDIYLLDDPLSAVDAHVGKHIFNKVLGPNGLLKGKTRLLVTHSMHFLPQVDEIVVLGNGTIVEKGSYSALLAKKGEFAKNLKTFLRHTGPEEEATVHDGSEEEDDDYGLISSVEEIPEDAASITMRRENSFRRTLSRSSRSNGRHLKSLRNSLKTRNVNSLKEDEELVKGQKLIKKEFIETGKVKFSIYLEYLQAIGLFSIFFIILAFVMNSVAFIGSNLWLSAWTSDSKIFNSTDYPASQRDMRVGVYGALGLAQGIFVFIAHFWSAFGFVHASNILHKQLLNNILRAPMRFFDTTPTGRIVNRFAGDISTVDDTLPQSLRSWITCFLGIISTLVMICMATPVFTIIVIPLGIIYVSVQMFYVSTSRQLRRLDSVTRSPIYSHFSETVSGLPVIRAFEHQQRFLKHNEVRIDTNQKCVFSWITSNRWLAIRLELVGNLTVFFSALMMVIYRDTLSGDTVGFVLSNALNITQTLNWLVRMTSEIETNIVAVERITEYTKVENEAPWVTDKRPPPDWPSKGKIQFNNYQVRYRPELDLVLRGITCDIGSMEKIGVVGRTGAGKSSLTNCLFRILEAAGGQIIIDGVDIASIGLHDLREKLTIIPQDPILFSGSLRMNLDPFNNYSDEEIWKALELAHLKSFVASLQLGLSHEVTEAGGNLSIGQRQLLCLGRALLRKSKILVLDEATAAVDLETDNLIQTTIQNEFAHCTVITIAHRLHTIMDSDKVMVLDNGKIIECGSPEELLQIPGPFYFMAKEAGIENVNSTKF

[2] = biological target: ATP-binding cassette sub-family C member 3 (Homo sapiens, UniProt O15438); assay: Inhibition of human MRP3 overexpressed in Sf9 insect cell membrane vesicles assessed as uptake of [3H]-estradiol-17beta-D-glucuronide in presence of ATP and GSH measured after 10 mins by membrane vesicle transport assay; type: ADME, cell-based
ATP-binding cassette sub-family C member 3, sequence (O15438 whole entry): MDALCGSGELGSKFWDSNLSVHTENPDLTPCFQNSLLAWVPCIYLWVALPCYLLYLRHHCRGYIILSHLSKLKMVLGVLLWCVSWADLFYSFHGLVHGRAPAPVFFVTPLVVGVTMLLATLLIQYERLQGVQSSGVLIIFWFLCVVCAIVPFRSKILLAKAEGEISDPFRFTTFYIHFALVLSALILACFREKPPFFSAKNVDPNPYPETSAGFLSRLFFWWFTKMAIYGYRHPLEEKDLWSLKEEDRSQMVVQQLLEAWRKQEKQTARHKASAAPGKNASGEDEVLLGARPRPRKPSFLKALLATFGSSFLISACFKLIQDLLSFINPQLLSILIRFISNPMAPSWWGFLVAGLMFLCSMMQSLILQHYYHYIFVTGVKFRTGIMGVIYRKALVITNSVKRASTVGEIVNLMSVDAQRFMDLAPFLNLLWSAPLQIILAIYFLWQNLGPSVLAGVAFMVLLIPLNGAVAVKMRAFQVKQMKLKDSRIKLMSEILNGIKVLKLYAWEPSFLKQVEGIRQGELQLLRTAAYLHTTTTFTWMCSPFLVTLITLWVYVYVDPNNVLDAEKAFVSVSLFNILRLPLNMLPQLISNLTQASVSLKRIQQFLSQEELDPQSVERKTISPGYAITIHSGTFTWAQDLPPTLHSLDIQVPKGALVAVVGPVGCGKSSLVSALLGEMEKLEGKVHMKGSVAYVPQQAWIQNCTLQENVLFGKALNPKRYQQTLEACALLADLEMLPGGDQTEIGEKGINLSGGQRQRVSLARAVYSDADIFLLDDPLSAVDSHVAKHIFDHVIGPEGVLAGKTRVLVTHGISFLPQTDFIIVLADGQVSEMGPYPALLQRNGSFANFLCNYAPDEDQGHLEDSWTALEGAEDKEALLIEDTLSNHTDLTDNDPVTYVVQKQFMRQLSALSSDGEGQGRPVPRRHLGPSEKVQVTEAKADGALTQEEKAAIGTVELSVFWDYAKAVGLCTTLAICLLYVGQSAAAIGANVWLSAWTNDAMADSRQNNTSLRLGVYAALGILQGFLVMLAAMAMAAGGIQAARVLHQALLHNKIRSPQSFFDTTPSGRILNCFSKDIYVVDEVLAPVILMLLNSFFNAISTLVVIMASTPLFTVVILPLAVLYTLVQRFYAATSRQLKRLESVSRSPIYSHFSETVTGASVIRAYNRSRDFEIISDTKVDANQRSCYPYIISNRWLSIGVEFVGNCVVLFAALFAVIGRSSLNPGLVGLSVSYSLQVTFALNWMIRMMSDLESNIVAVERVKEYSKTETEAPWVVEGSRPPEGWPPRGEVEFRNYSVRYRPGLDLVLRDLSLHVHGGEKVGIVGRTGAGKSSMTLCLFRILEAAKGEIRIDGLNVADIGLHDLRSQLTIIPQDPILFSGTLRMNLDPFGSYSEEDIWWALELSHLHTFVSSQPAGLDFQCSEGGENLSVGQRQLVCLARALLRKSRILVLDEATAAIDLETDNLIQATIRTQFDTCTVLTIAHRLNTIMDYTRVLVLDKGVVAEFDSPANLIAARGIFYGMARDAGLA

[3] = biological target: T1, ATP-binding cassette sub-family C member 4 (Homo sapiens, UniProt O15439); assay: Inhibition of human MRP4 overexpressed in Sf9 cell membrane vesicles assessed as uptake of [3H]-estradiol-17beta-D-glucuronide in presence of ATP and GSH measured after 20 mins by membrane vesicle transport assay; type: ADME, cell-based
T1 sequence (O15439 whole entry): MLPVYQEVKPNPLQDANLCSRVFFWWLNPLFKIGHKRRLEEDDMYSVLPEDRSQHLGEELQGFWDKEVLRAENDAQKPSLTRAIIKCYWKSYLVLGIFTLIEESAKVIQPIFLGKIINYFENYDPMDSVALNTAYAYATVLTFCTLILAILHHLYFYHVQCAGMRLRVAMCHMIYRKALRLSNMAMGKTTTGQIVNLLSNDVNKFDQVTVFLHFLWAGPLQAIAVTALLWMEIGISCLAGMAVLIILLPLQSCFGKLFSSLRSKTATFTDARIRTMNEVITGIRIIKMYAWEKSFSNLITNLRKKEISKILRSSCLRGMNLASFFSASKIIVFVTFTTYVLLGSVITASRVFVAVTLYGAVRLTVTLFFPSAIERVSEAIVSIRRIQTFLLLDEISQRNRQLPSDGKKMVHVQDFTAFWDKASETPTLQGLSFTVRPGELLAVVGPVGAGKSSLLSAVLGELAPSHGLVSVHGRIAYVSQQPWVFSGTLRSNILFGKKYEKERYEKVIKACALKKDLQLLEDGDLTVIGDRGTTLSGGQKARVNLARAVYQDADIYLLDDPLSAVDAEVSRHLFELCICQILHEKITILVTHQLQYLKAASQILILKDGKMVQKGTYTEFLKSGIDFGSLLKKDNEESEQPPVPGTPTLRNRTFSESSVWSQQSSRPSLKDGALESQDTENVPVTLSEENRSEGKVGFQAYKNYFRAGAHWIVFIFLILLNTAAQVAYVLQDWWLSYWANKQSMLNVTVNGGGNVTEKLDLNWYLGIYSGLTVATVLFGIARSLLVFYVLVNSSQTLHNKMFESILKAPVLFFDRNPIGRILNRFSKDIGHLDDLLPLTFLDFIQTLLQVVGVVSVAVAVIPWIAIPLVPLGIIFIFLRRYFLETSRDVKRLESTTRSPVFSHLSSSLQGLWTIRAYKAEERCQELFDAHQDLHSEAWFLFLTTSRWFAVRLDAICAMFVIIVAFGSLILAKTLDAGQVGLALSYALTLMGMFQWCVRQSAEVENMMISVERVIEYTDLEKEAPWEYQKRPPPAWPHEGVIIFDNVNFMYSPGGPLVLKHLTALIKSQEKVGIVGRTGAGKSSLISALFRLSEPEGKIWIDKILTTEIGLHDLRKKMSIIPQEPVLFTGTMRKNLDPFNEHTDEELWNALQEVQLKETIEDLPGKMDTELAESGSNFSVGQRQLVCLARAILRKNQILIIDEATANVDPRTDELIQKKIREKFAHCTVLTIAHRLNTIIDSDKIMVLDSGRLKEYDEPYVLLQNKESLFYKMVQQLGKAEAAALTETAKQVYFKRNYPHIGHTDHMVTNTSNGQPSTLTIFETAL

CC(=O)CCCCn1c(=O)c2c(ncn2C)n(C)c1=O [PENTOXIFYLLINE]
IC50 (Bile salt export pump): > 133 µM | IC50 [1]: > 133 µM | IC50 [2]: > 133 µM | IC50 [3]: > 133 µM

Cc1ccc(C)c(OCCCC(C)(C)C(=O)O)c1 [GEMFIBROZIL]
IC50 (Bile salt export pump): > 133 µM | IC50 [2]: > 133 µM | IC50 [3]: > 133 µM

CCOC(=O)[C@H](CCc1ccccc1)N[C@@H](C)C(=O)N1Cc2ccccc2C[C@H]1C(=O)O
IC50 (Bile salt export pump): 94 µM | IC50 [2]: > 133 µM | IC50 [3]: > 133 µM

Cc1cc(C2CCCCC2)n(O)c(=O)c1 [CICLOPIROX]
IC50 (Bile salt export pump): > 133 µM | IC50 [2]: > 133 µM | IC50 [3]: > 133 µM

Cc1cnc(NC(=O)C2=C(O)c3ccccc3S(=O)(=O)N2C)s1 [MELOXICAM]
IC50 (Bile salt export pump): 77.5 µM | IC50 [2]: > 133 µM | IC50 [3]: > 133 µM

C[C@](N)(Cc1ccc(O)c(O)c1)C(=O)O
IC50 (Bile salt export pump): > 133 µM | IC50 [2]: 41.2 µM | IC50 [3]: 8.08 µM

CCCc1nn(C)c2c(=O)[nH]c(-c3cc(S(=O)(=O)N4CCN(C)CC4)ccc3OCC)nc12 [SILDENAFIL CITRATE]
IC50 (Bile salt export pump): 132 µM | IC50 [1]: > 133 µM | IC50 [2]: > 133 µM

CCOC(=O)C1=C(C)NC(C)=C(C(=O)OC)C1c1cccc([N+](=O)[O-])c1 (centres undefined) [NITRENDIPINE]
IC50 (Bile salt export pump): 22.5 µM | IC50 [2]: > 133 µM | IC50 [3]: > 133 µM

CCOC(=O)[C@H](CCc1ccccc1)N[C@@H](C)C(=O)N1[C@H](C(=O)O)C[C@H]2CCCC[C@@H]21 [TRANDOLAPRIL]
IC50 (Bile salt export pump): > 133 µM | IC50 [2]: > 133 µM | IC50 [3]: > 133 µM

BIVALIRUDIN
IC50 (Bile salt export pump): > 133 µM | IC50 [1]: > 133 µM | IC50 [3]: > 133 µM

CN1C(=O)CN=C(c2ccccc2)c2cc(Cl)ccc21 [DIAZEPAM]
IC50 (Bile salt export pump): > 133 µM | IC50 [2]: > 133 µM | IC50 [3]: > 133 µM

O=c1n(CCCN2CCN(c3cccc(Cl)c3)CC2)nc2ccccn12 [TRAZODONE]
IC50 (Bile salt export pump): > 133 µM | IC50 [2]: > 133 µM | IC50 [3]: > 133 µM

O=c1n(CCCN2CCN(c3cccc(Cl)c3)CC2)nc2ccccn12 [TRAZODONE HYDROCHLORIDE]
IC50 (Bile salt export pump): > 133 µM | IC50 [2]: > 133 µM | IC50 [3]: > 133 µM

CC1=C(CC(=O)O)c2cc(F)ccc2/C1=C\c1ccc([S+](C)[O-])cc1 (centres undefined)
IC50 (Bile salt export pump): > 133 µM | IC50 [2]: > 133 µM | IC50 [3]: > 133 µM

N#C/C(=C1/SCC(c2ccccc2Cl)S1)n1ccnc1 (centres undefined) [LANOCONAZOLE]
IC50 (Bile salt export pump): 9.65 µM | IC50 [2]: > 133 µM | IC50 [3]: > 133 µM

O=C(O)COC(=O)Cc1ccccc1Nc1c(Cl)cccc1Cl [ACECLOFENAC]
IC50 (Bile salt export pump): 105 µM | IC50 [2]: > 133 µM | IC50 [3]: > 133 µM

CC(=O)[C@H]1[C@H](C#N)C[C@H]2[C@@H]3CC=C4C[C@@H](O)CC[C@]4(C)[C@H]3CC[C@@]21C [PREGNENOLONE CARBONITRILE]
IC50 (Bile salt export pump): > 133 µM | IC50 [2]: > 133 µM | IC50 [3]: > 133 µM

CC(=O)Nc1ccc(S(=O)(=O)Nc2ccc([N+](=O)[O-])cc2)cc1
IC50 (Bile salt export pump): > 133 µM | IC50 [2]: > 133 µM | IC50 [3]: > 133 µM

CCCCNc1cc(C(=O)O)cc(S(N)(=O)=O)c1Oc1ccccc1 [BUMETANIDE]
IC50 (Bile salt export pump): > 133 µM | IC50 [2]: > 133 µM | IC50 [3]: > 133 µM

COc1cc2nc(N3CCN(C(=O)c4ccco4)CC3)nc(N)c2cc1OC [PRAZOSIN]
IC50 (Bile salt export pump): > 133 µM | IC50 [2]: > 133 µM | IC50 [3]: 12.5 µM

CC(C)(Oc1ccc(C2CC2(Cl)Cl)cc1)C(=O)O (centres undefined) [CIPROFIBRATE]
IC50 (Bile salt export pump): > 133 µM | IC50 [2]: > 133 µM | IC50 [3]: > 133 µM
